Measured values taken from US20230414601A1, “INJECTABLE COMPOSITION CONTAINING CASPASE INHIBITOR, AND PREPARATION METHOD THEREFOR” (LG CHEM, LTD., priority 2020, published 2023).

Experiment: Test for API loss according to continuous phase
Assay type: physicochemical
Description: A dispersed phase was prepared by dissolving a certain amount of the Test Compound (API) in an organic solvent (dichloromethane, DCM), and 1 mL of the prepared dispersed phase was added to each continuous phase and then stirred to measure the amount of the API extracted into the continuous phase.

Amount of API extracted into continuous phase (%) (continuous phase 0.01N HCl): 4.0%
Amount of API extracted into continuous phase (%) (continuous phase DW, dispersed phase API in DCM, 1 mL): 3.7%
Amount of API extracted into continuous phase (%) (continuous phase PVA 1 wt %): 24.9%
Amount of API extracted into continuous phase (%) (continuous phase PVA 1 wt % + 1N HCl): 13.1%
Amount of API extracted into continuous phase (%) (continuous phase PVA 5 wt %): 59.3%
Compound: CC(C)[C@@]1(C(=O)N[C@H]2CC(=O)O[C@]2(O)CF)CC(c2nccc3ccccc23)=NO1 [Test Compound, (R)-N-((2S,3S)-2-(fluoromethyl)-2-hydroxy-5-oxotetrahydrofuran-3-yl)-5-isopropyl-3-(isoquinolin-1-yl)-4,5-dihydroisoxazole-5-carboxamide]
